Assay results published in the supplement of paper PMC4862054.

Tests used:
Details in all cases: incubation time: 72 h
HCC1599 [1] = assay: normalised viability (% of control), CellTiter-Blue; higher = more viable cells (about 100 = DMSO control)
How it was run: (§1)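 Compound dissolved in 5 µl medium was pre-loaded into 384-well plates, and breast cancer cell lines in 20 µl suspension were seeded on top and incubated 72 h. After adding 2.5 µl CellTiter-Blue reagent for 2 h at 37 °C, fluorescence was read at 560/590 nm. Plates were normalised to vehicle (100) and a positive kill control (0), with Z'-factor quality control. Each value is normalised viability at a single listed concentration from the series.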

HCC1937 [2] = assay: as above
How it was run: as §1

CAL-51 [3] = assay: as above
How it was run: as §1

MDA-MB-231 [4] = assay: as above
How it was run: as §1

MDA-MB-468 [5] = assay: as above
How it was run: as §1

BT-474 [6] = assay: as above
How it was run: as §1

HDQ-P1 [7] = assay: as above
How it was run: as §1

HCC1143 [8] = assay: as above
How it was run: as §1

DU-4475 [9] = assay: as above
How it was run: as §1

HCC1599 [10] = assay: drug sensitivity score (DSS), CellTox Green (DSS (AUC-based score)); higher = stronger drug effect (viability inhibition or cytotoxicity); extreme values may be limits of the assay
How it was run: (§2)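 Each compound occupied 5 concentrations in 10-fold steps over its own 10,000-fold range in 384-well plates, into which breast cancer cell lines were seeded as 20 µl suspension. Following 72 h of incubation, CellTox Green fluorescence (485/520 nm) was measured, and CellTiter-Glo luminescence was measured after 10 min at room temperature. Plates were individually normalised to 0.1 % DMSO and a positive kill control. From the area under the fitted dose-response curve, a drug sensitivity score was calculated.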

HCC1937 [11] = assay: as above
How it was run: as §2

MDA-MB-453 = assay: as above
How it was run: as §2

CAL-120 = assay: as above
How it was run: as §2

CAL-51 [12] = assay: as above
How it was run: as §2

MDA-MB-231 [13] = assay: as above
How it was run: as §2

MDA-MB-468 [14] = assay: as above
How it was run: as §2

BT-474 [15] = assay: as above
How it was run: as §2

CAL-85-1 = assay: as above
How it was run: as §2

Hs578T = assay: as above
How it was run: as §2

HDQ-P1 [16] = assay: as above
How it was run: as §2

BT-549 = assay: as above
How it was run: as §2

HCC1143 [17] = assay: as above
How it was run: as §2

MDA-MB-436 = assay: as above
How it was run: as §2

MCF-10A = assay: as above
How it was run: as §2

DU-4475 [18] = assay: as above
How it was run: as §2

Cc1cc(Nc2nc(N[C@@H](C)c3ncc(F)cn3)ncc2Cl)[nH]n1 [AZD1480]
normalised viability (HCC1599 [1]; 1 nM): 96% | normalised viability (HCC1599 [1]; 100 nM): 96.6% | normalised viability (HCC1599 [1]; 1000 nM): 74.6% | normalised viability (HCC1937 [2]; 1 nM): 112% | normalised viability (HCC1937 [2]; 100 nM): 83.9% | normalised viability (HCC1937 [2]; 1000 nM): 83.4% | normalised viability (CAL-51 [3]; 0.3 nM): 115% | normalised viability (CAL-51 [3]; 3 nM): 114% | normalised viability (CAL-51 [3]; 10 nM): 110% | normalised viability (MDA-MB-231 [4]; 1 nM): 107% | normalised viability (MDA-MB-231 [4]; 100 nM): 95.5% | normalised viability (MDA-MB-231 [4]; 1000 nM): 85.7% | normalised viability (MDA-MB-468 [5]; 1 nM): 109% | normalised viability (MDA-MB-468 [5]; 100 nM): 103% | normalised viability (MDA-MB-468 [5]; 1000 nM): 84.9% | normalised viability (BT-474 [6]; 1 nM): 137% | normalised viability (BT-474 [6]; 100 nM): 108% | normalised viability (BT-474 [6]; 1000 nM): 112% | normalised viability (HDQ-P1 [7]; 0.3 nM): 106% | normalised viability (HDQ-P1 [7]; 3 nM): 108% | normalised viability (HDQ-P1 [7]; 10 nM): 107% | normalised viability (HCC1143 [8]; 1 nM): 96% | normalised viability (HCC1143 [8]; 100 nM): 102% | normalised viability (HCC1143 [8]; 1000 nM): 71.8% | normalised viability (DU-4475 [9]; 0.3 nM): 102% | normalised viability (DU-4475 [9]; 3 nM): 104% | normalised viability (DU-4475 [9]; 10 nM): 95.8% | drug sensitivity score (HCC1599 [10]): 0 | drug sensitivity score (HCC1937 [11]): 0 | drug sensitivity score (MDA-MB-453): 0 | drug sensitivity score (CAL-120): 0 | drug sensitivity score (CAL-51 [12]): 0 | drug sensitivity score (MDA-MB-231 [13]): 0 | drug sensitivity score (MDA-MB-468 [14]): 0 | drug sensitivity score (BT-474 [15]): 0 | drug sensitivity score (CAL-85-1): 0 | drug sensitivity score (Hs578T): 1.75 | drug sensitivity score (HDQ-P1 [16]): 0 | drug sensitivity score (BT-549): 0.354 | drug sensitivity score (HCC1143 [17]): 0 | drug sensitivity score (MDA-MB-436): 0 | drug sensitivity score (MCF-10A): 0 | drug sensitivity score (DU-4475 [18]): 0

CN(Cc1cnc2nc(N)nc(N)c2n1)c1ccc(C(=O)N[C@@H](CCC(=O)O)C(=O)O)cc1 [Methotrexate]
normalised viability (HCC1599 [1]; 10 nM): 102% | normalised viability (HCC1599 [1]; 1000 nM): 75.6% | normalised viability (HCC1599 [1]; 10000 nM): 103% | normalised viability (HCC1937 [2]; 10 nM): 86.5% | normalised viability (HCC1937 [2]; 1000 nM): 72.1% | normalised viability (HCC1937 [2]; 10000 nM): 76.1% | normalised viability (CAL-51 [3]; 3 nM): 108% | normalised viability (CAL-51 [3]; 30 nM): 101% | normalised viability (CAL-51 [3]; 100 nM): 62.6% | normalised viability (MDA-MB-231 [4]; 10 nM): 94.2% | normalised viability (MDA-MB-231 [4]; 1000 nM): 94.7% | normalised viability (MDA-MB-231 [4]; 10000 nM): 94.1% | normalised viability (MDA-MB-468 [5]; 10 nM): 90.7% | normalised viability (MDA-MB-468 [5]; 1000 nM): 41.5% | normalised viability (MDA-MB-468 [5]; 10000 nM): 42.7% | normalised viability (BT-474 [6]; 10 nM): 115% | normalised viability (BT-474 [6]; 1000 nM): 118% | normalised viability (BT-474 [6]; 10000 nM): 128% | normalised viability (HDQ-P1 [7]; 3 nM): 108% | normalised viability (HDQ-P1 [7]; 30 nM): 95.5% | normalised viability (HDQ-P1 [7]; 100 nM): 96% | normalised viability (HCC1143 [8]; 10 nM): 87.8% | normalised viability (HCC1143 [8]; 1000 nM): 68.9% | normalised viability (HCC1143 [8]; 10000 nM): 65.4% | normalised viability (DU-4475 [9]; 3 nM): 102% | normalised viability (DU-4475 [9]; 30 nM): 99.3% | normalised viability (DU-4475 [9]; 100 nM): 101% | drug sensitivity score (HCC1599 [10]): 0 | drug sensitivity score (HCC1937 [11]): 0 | drug sensitivity score (MDA-MB-453): 0.671 | drug sensitivity score (CAL-120): 0 | drug sensitivity score (CAL-51 [12]): 0 | drug sensitivity score (MDA-MB-231 [13]): 0 | drug sensitivity score (MDA-MB-468 [14]): 0 | drug sensitivity score (BT-474 [15]): 0 | drug sensitivity score (CAL-85-1): 0.579 | drug sensitivity score (Hs578T): 7.51 | drug sensitivity score (HDQ-P1 [16]): 0 | drug sensitivity score (BT-549): 0 | drug sensitivity score (HCC1143 [17]): 1.72 | drug sensitivity score (MDA-MB-436): 2.33 | drug sensitivity score (MCF-10A): 0 | drug sensitivity score (DU-4475 [18]): 0

CCN(CC)CCCC(C)Nc1ccnc2cc(Cl)ccc12 (configuration not stated) [Chloroquine]
normalised viability (HCC1599 [1]; 0.99 nM): 100% | normalised viability (HCC1599 [1]; 99 nM): 85.6% | normalised viability (HCC1599 [1]; 990 nM): 119% | normalised viability (HCC1937 [2]; 0.99 nM): 100% | normalised viability (HCC1937 [2]; 99 nM): 111% | normalised viability (HCC1937 [2]; 990 nM): 100% | normalised viability (CAL-51 [3]; 0.297 nM): 94% | normalised viability (CAL-51 [3]; 2.97 nM): 92.9% | normalised viability (CAL-51 [3]; 9.9 nM): 91.7% | normalised viability (MDA-MB-231 [4]; 0.99 nM): 113% | normalised viability (MDA-MB-231 [4]; 99 nM): 129% | normalised viability (MDA-MB-231 [4]; 990 nM): 98.7% | normalised viability (MDA-MB-468 [5]; 0.99 nM): 107% | normalised viability (MDA-MB-468 [5]; 99 nM): 115% | normalised viability (MDA-MB-468 [5]; 990 nM): 98.4% | normalised viability (BT-474 [6]; 0.99 nM): 109% | normalised viability (BT-474 [6]; 99 nM): 108% | normalised viability (BT-474 [6]; 990 nM): 111% | normalised viability (HDQ-P1 [7]; 0.297 nM): 107% | normalised viability (HDQ-P1 [7]; 2.97 nM): 113% | normalised viability (HDQ-P1 [7]; 9.9 nM): 116% | normalised viability (HCC1143 [8]; 0.99 nM): 97.8% | normalised viability (HCC1143 [8]; 99 nM): 89.2% | normalised viability (HCC1143 [8]; 990 nM): 93.4% | normalised viability (DU-4475 [9]; 0.297 nM): 106% | normalised viability (DU-4475 [9]; 2.97 nM): 89.8% | normalised viability (DU-4475 [9]; 9.9 nM): 112% | drug sensitivity score (HCC1599 [10]): 2.54 | drug sensitivity score (HCC1937 [11]): 5.9 | drug sensitivity score (MDA-MB-453): 9.85 | drug sensitivity score (CAL-120): 4.62 | drug sensitivity score (CAL-51 [12]): 3.75 | drug sensitivity score (MDA-MB-231 [13]): 11.6 | drug sensitivity score (MDA-MB-468 [14]): 27.3 | drug sensitivity score (BT-474 [15]): 14.7 | drug sensitivity score (CAL-85-1): 7.92 | drug sensitivity score (Hs578T): 8.48 | drug sensitivity score (HDQ-P1 [16]): 5.48 | drug sensitivity score (BT-549): 1.78 | drug sensitivity score (HCC1143 [17]): 0 | drug sensitivity score (MDA-MB-436): 8.96 | drug sensitivity score (MCF-10A): 7.9 | drug sensitivity score (DU-4475 [18]): 1.64

CC(C)(C)NC(=O)[C@H]1CC[C@H]2[C@@H]3CC[C@H]4NC(=O)C=C[C@]4(C)[C@H]3CC[C@]12C [Finasteride]
normalised viability (HCC1599 [1]; 10 nM): 97.1% | normalised viability (HCC1599 [1]; 1000 nM): 114% | normalised viability (HCC1599 [1]; 10000 nM): 83.4% | normalised viability (HCC1937 [2]; 10 nM): 107% | normalised viability (HCC1937 [2]; 1000 nM): 94.7% | normalised viability (HCC1937 [2]; 10000 nM): 106% | normalised viability (CAL-51 [3]; 3 nM): 112% | normalised viability (CAL-51 [3]; 30 nM): 108% | normalised viability (CAL-51 [3]; 100 nM): 103% | normalised viability (MDA-MB-231 [4]; 10 nM): 98.2% | normalised viability (MDA-MB-231 [4]; 1000 nM): 98.5% | normalised viability (MDA-MB-231 [4]; 10000 nM): 122% | normalised viability (MDA-MB-468 [5]; 10 nM): 106% | normalised viability (MDA-MB-468 [5]; 1000 nM): 99.2% | normalised viability (MDA-MB-468 [5]; 10000 nM): 121% | normalised viability (BT-474 [6]; 10 nM): 125% | normalised viability (BT-474 [6]; 1000 nM): 111% | normalised viability (BT-474 [6]; 10000 nM): 125% | normalised viability (HDQ-P1 [7]; 3 nM): 121% | normalised viability (HDQ-P1 [7]; 30 nM): 116% | normalised viability (HDQ-P1 [7]; 100 nM): 130% | normalised viability (HCC1143 [8]; 10 nM): 102% | normalised viability (HCC1143 [8]; 1000 nM): 96.8% | normalised viability (HCC1143 [8]; 10000 nM): 106% | normalised viability (DU-4475 [9]; 3 nM): 97.7% | normalised viability (DU-4475 [9]; 30 nM): 106% | normalised viability (DU-4475 [9]; 100 nM): 103% | drug sensitivity score (HCC1599 [10]): 0 | drug sensitivity score (HCC1937 [11]): 0 | drug sensitivity score (MDA-MB-453): 0 | drug sensitivity score (CAL-120): 0 | drug sensitivity score (CAL-51 [12]): 0 | drug sensitivity score (MDA-MB-231 [13]): 0 | drug sensitivity score (MDA-MB-468 [14]): 0 | drug sensitivity score (BT-474 [15]): 0 | drug sensitivity score (CAL-85-1): 0 | drug sensitivity score (Hs578T): 2.04 | drug sensitivity score (HDQ-P1 [16]): 0 | drug sensitivity score (BT-549): 0 | drug sensitivity score (HCC1143 [17]): 0 | drug sensitivity score (MDA-MB-436): 0 | drug sensitivity score (MCF-10A): 0 | drug sensitivity score (DU-4475 [18]): 0
